This passage reports IC50 results from ChEMBL document CHEMBL1141550, “N-Alkylated galanthamine derivatives: Potent acetylcholinesterase inhibitors from Leucojum aestivum” (Bioorg Med Chem Lett, 2008).

For this experiment, the target named is Acetylcholinesterase (Electrophorus electricus, UniProt O42275). The experiment in a line: Inhibition of electric eel acetylcholinesterase.
Chain of Acetylcholinesterase (O42275 whole entry): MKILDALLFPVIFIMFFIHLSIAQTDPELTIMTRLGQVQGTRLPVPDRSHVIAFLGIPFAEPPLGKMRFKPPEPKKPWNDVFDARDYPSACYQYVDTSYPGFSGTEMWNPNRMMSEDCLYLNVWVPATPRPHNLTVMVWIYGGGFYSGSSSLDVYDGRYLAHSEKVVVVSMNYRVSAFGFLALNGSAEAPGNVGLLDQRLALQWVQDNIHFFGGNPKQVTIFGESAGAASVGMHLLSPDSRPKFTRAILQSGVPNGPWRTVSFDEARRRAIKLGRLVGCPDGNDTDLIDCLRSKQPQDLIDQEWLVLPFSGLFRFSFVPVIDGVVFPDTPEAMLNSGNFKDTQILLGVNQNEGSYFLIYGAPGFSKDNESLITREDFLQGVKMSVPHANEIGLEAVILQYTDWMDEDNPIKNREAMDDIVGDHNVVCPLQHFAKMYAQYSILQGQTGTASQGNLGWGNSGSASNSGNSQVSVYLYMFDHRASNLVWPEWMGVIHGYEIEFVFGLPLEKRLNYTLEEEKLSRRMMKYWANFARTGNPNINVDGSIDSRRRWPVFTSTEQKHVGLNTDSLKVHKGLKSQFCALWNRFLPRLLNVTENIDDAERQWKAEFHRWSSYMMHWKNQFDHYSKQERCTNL

The IC50 is the point on the concentration scale where inhibition reaches its midpoint. `C=C(C)CN1CC[C@@]23C=C[C@H](O)C[C@@H]2Oc2c(OC)ccc(c23)C1`: the IC50 is 160 nM. The figure for `C=CCN1CC[C@@]23C=C[C@H](O)C[C@@H]2Oc2c(OC)ccc(c23)C1` [N-ALLYLNORGALANTHAMINE] is 180 nM.
